Tested on: onset of the headache phase of migraine
Assay: Open label pilot study of oral naratriptan 2.5 mg taken as a single dose during prodrome
Type: in vivo, human
Description: An open label pilot study was conducted to determine whether oral naratriptan 2.5 mg taken as a single dose during the prodrome could prevent the onset of the headache phase of migraine. […] Twenty patients recruited at 4 study sites were administered oral naratriptan 2.5 mg after onset of prodrome symptoms for a total of 63 prodromes. […] The pain severity of headaches that were not prevented were reduced as compared to baseline pain severity of migraine attacks not treated with naratriptan. An additional 13 patients recruited at a fifth site were also treated. […] Upon review, all 13 patients reported onset of headache within 3 hours after administration of naratriptan. Eighty-seven percent of prodromes in this patient group were treated ≦2 hours before onset of headache.

`CNS(=O)(=O)CCc1ccc2[nH]cc(C3CCN(C)CC3)c2c1.Cl` [naratriptan, N-methyl-3-(1-methyl-4-piperidinyl)-1H-indole-5-ethanesulfonamide monohydrochloride] was tested. Which “headaches not prevented that occurred ≦2 hours after treatment” value (4 sites, 15 of the 25 headaches) did it give?
Its value is 60%.

What about the “pain severity of headaches that were not prevented, compared to baseline pain severity of attacks not treated with naratriptan” value (4 study sites, oral 2.5 mg) of the same compound?
Its value is “reduced”.

What about the “treated prodromes that did not progress to headache” value (20 patients at 4 study sites, 63 prodromes, oral 2.5 mg after onset of prodrome symptoms) of the same compound?
The value was “Sixty”.

What about the “patients reporting headache following treatment” value (additional 13 patients at a fifth site) of the same compound?
Its value is “All 13 patients reported headache following each treatment”.

And the “prodromes treated ≦2 hours before onset of headache” value (fifth site, 13 patients)?
The value was “Eighty-seven”.

What about the “onset of headache after administration” value (fifth site, all 13 patients) of the same compound?
The value was ≤ 3 h.

What about the “preventing the onset of the headache phase of migraine” value (oral 2.5 mg single dose during prodrome, open label) of the same compound?
The value was “effective in preventing the onset of the headache phase of migraine”.

Source: patent US7189753B1, “Preemptive prophylaxis of migraine” (priority 1997, dated 2007)
